This is an account of results in US20220313678A1 (priority 2021, published 2022).

For data set [1] the following is noted: free base (non-protonated); cited from earlier work.
For data set [2] the following is noted: 1:1 v:v, about 25° C., about 24 hours.
Description: Each of Samples 1-8 is prepared by and measured according to the following method. Liquid nicotine is added at the target nicotine concentration to a vessel containing an oil phase. The oil phase containing nicotine is mixed with an aqueous phase at a one-to-one volume ratio (v:v) using an orbital shaker at about 100 rotations per minute (rpm) for about 5 minutes to prepare a nicotine oil: aqueous phase mix. The nicotine oil: aqueous phase mix is allowed to sit at room temperature (about 25° C.) for about 24 hours. A concentration of nicotine in each of the oil phase and the nicotine phase is measured using a liquid chromatography method. A partition coefficient, which is a ratio concentrations of a compound (i.e., nicotine) in two immiscible solvents (i.e., an oil phase and an aqueous phase) at equilibrium, is calculated for each sample. The partition coefficient is a comparison of the solubilities of the nicotine in the two liquid phases.
Samples 1-6 include MCT oil (CAS No. 73398-61-5) as an oil phase. Sample 7 includes triacetin oil as an oil phase. Sample 8 includes triolein oil as an oil phase. Sample 1 includes deionized (DI) water as an aqueous phase. Sample 2 includes basified DI water having a pH of 7.4 as an aqueous phase. Sample 3 includes artificial saliva having a pH of 6.8 as an aqueous phase. Artificial saliva simulates mucus conditions. […]

Read-outs that look alike come from different tables or passages of the source.

Consider `CN1CCCC1c1cccnc1` (stereo not drawn) [nicotine, 3-(1-methyl-2-pyrrolidinyl) pyridine], for which the pKa value result in data set [1] is “about 8”. Besides, the “partition coefficient (oil phase : aqueous phase)” value in data set [2] (Samples 1-4: MCT oil vs DI water, basified DI water pH 7.4, artificial saliva pH 6.8, acidified DI water pH 2) is on record as “greater than 1”; in data set [2] (Samples 5-8: MCT, triacetin or triolein oil vs 1M acetic acid pH adjuster pH 2), “less than 1”.
